Patent publication US20030078251A1, “Benzoxazepinones and their use as squalene synthase inhibitors” (priority 2000, published 2003)

Assays:
squalene synthase = biological target: T1, squalene synthase (Homo sapiens, UniProt P37268); assay: Squalene synthase inhibiting activity (Test Example 1); format: biochemical; settings: enzyme solution from human hepatic cancer cell HepG2; 5 μM [1-3H] farnesyl pyrophosphate, 37° C., 45 minutes; read-out: Inhibiting activity (IC50, 10^−9M)
T1 construct: endogenous in cells; host or cells: HepG2 (human hepatic cancer cells); sediment of the 105000 x g centrifugation (microsomal fraction)
T1 sequence (P37268 1-417): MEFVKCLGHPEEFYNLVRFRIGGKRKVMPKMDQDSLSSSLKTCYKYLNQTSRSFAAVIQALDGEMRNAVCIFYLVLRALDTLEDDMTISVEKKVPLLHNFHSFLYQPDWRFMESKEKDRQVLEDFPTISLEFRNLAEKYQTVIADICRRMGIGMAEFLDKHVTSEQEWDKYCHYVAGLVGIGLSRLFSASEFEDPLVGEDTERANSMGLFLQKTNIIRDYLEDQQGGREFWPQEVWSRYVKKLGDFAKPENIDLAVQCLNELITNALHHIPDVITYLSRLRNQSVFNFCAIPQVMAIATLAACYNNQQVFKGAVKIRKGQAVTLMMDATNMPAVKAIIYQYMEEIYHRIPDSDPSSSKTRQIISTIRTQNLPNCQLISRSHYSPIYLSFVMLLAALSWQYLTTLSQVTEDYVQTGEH
Experimental: Squalene Synthase Inhibiting Activity
The squalene synthase inhibiting activity was measured using an enzyme solution obtained according to a preparing method described below as follows:
That is, an enzyme solution (protein 0.8 μg) prepared according to the following preparing method was added to a solution containing 5 μM [1-^3H] farnesyl pyrophosphate (specific activity […]), 1 mM NADPH (reduced type nicotinamide adenine dinucleotide phosphate), 5 mM MgCl2, 6 mM glutathione, 100 mM potassium phosphate buffer (pH 7.4) and a test drug (added as an aqueous solution or DMSO solution)(total amount 50 μl), which was reacted at 37° C. for 45 minutes. 150 μl of a mixed solution of chloroform and methanol (1:2) was added to stop the reaction, and 50 μl of chloroform and 50 μl of a 3N sodium hydroxide solution were added. 50 μl of the chloroform layer (lower layer) containing the reaction product, a main component of which is squalene, and 3 ml of toluene series liquid scintillator were mixed, and the radioactivity thereof was measured by a liquid scintillation counter.
The squalene synthase inhibiting activity was shown by the concentration at which 50% of the radioactivity […] into the chloroform layer (IC50, molar concentration (M)).
Preparation of Human Enzyme Solution
Human hepatic cancer cell HepG2 (about 1×10^9 cells) was grown in Dulbecco's modified Eagle medium (37° C., in the presence of 5%CO2) containing 10% bovine fetal serum, the resulting cells were suspended in 10 ml of ice-cooled buffer [100 mM potassium phosphate buffer (pH 7.4), 30 mM nicotinamide, 2.5 mM MgCl2], and ruptured by the ultrasonication (30 seconds, 2 times). The resulting sonicate was centrifuged at 10000× g for 20 minutes (4° C.). The resulting supernatant was centrifuged at 105000× g for 90 minutes (4° C.), then the sediment was suspended in an ice-cooled 100 mM potassium phosphate buffer (pH 7.4), and centrifuged again at 105000× g for 90 minutes (4° C.). This was suspended in an ice-cooled 100 mM potassium phosphate buffer (pH 7.4) (protein concentration about 4 mg/ml), which was used as an enzyme solution.

Row | Structure (SMILES) | melting point | IC50 (squalene synthase)
1 | CCCS(=O)(=O)NC(=O)C[C@H]1O[C@H](c2cccc(OC)c2OC)c2cc(Cl)ccc2N(CC(C)(C)CO)C1=O [Example 2, (3R,5S)-N-propanesulfonyl-7-chloro-5-(2,3-dimethoxyphenyl)-1-(3-hydroxy-2,2-dimethylpropyl)-2-oxo-1,2,3,5-tetrahydro-4,1-benzoxazepine-3-acetamide] | 135 to 137 °C | 54 nM
2 | COc1cccc([C@H]2O[C@H](CC(=O)N[C@H](C)C(=O)O)C(=O)N(CC(C)(C)C)c3ccc(Cl)cc32)c1OC [Example 18, (2R)-2-[[(3R,5S)-7-chloro-5-(2,3-dimethoxyphenyl)-1-neopentyl-2-oxo-1,2,3,5-tetrahydro-4,1-benzoxazepin-3-yl]acetyl]aminopropionic Acid] | 184 to 186 °C | 10 nM
3 | COc1cccc([C@H]2O[C@H](CC(=O)NC[C@H]3CC[C@H](C(=O)O)CC3)C(=O)N(CC(C)(C)CO)c3ccc(Cl)cc32)c1OC [Example 23, trans-4-[[(3R,5S)-7-chloro-5-(2,3-dimethoxyphenyl)-1-(3-hydroxy-2,2-dimethylpropyl)-2-oxo-1,2,3,5-tetrahydro-4,1-benzoxazepin-3-yl]acetyl]aminomethyl-1-cyclohexanecarboxylic acid] | – | 99 nM
4 | COc1cccc([C@H]2O[C@H](CC(=O)NC[C@H]3CC[C@H](C(=O)O)CC3)C(=O)N(CC(C)(C)COC(C)=O)c3ccc(Cl)cc32)c1OC [Example 24, trans-4-[[(3R,5S)-1-(3-acetoxy-2,2-dimethylpropyl)-7-chloro-5-(2,3-dimethoxyphenyl)-2-oxo-1,2,3,5-tetrahydro-4,1-benzoxazepin-3-yl]acetyl]aminomethyl-1-cyclohexanecarboxylic acid] | – | 170 nM
5 | COc1cccc([C@H]2O[C@H](CC(=O)NCCc3occc3C(=O)O)C(=O)N(CC(C)(C)CO)c3ccc(Cl)cc32)c1OC [Example 26, 2-[2-[[[(3R,5S)-7-chloro-5-(2,3-dimethoxyphenyl)-1-(2,2-dimethyl-3-hydroxypropyl)-2-oxo-1,2,3,5-tetrahydro-4,1-benzoxazepin-3-yl]acetyl]amino]ethyl]furan-3-carboxylic acid] | 126 to 129 °C | 25 nM
6 | COc1cccc([C@H]2O[C@H](CC(=O)NCc3ccoc3C(=O)O)C(=O)N(CC(C)(C)CO)c3ccc(Cl)cc32)c1OC [Example 30, 3-[[[[(3R,5S)-7-chloro-5-(2,3-dimethoxyphenyl)-1-(2,2-dimethyl-3-hydroxypropyl)-2-oxo-1,2,3,5-tetrahydro-4,1-benzoxazepin-3-yl]acetyl]amino]methyl]furan-2-carboxylic acid] | 125 to 128 °C | 9.1 nM
7 | COc1cccc([C@H]2O[C@H](CC(=O)Nc3cccc(CCC(=O)O)c3)C(=O)N(CC(C)(C)CO)c3ccc(Cl)cc32)c1OC [Example 35, 3-[3-[[(3R,5S)-7-chloro-5-(2,3-dimethoxyphenyl)-1-(3-hydroxy-2,2-dimethylpropyl)-2-oxo-1,2,3,5-tetrahydro-4,1-benzoxazepin-3-yl]acetyl]aminophenyl]propionic Acid] | 141 to 144 °C | 120 nM
8 | COc1ccc(CCC(=O)O)cc1NC(=O)C[C@H]1O[C@H](c2cccc(OC)c2OC)c2cc(Cl)ccc2N(CC(C)(C)CO)C1=O [Example 37, 3-[3-[[(3R,5S)-7-chloro-5-(2,3-dimethoxyphenyl)-1-(3-hydroxy-2,2-dimethylpropyl)-2-oxo-1,2,3,5-tetrahydro-4,1-benzoxazepin-3-yl]acetyl]amino-4-methoxyphenyl]propionic Acid] | – | 94 nM
9 | COc1cccc([C@H]2O[C@H](CC(=O)Nc3cc(CCC(=O)O)ccc3F)C(=O)N(CC(C)(C)CO)c3ccc(Cl)cc32)c1OC [Example 53, 3-[3-[[[(3R,5S)-7-chloro-5-(2,3-dimethoxyphenyl)-1-(3-hydroxy-2,2-dimethylpropyl)-2-oxo-1,2,3,5-tetrahydro-4,1-benzoxazepin-3-yl]acetyl]amino]-4-fluorophenyl]propionic Acid] | 151 to 152 °C | 40 nM
10 | COc1cccc([C@H]2O[C@H](CC(=O)Nc3cc(CCC(=O)O)ccc3C)C(=O)N(CC(C)(C)CO)c3ccc(Cl)cc32)c1OC [Example 55, 3-[3-[[(3R,5S)-7-chloro-5-(2,3-dimethoxyphenyl)-1-(3-hydroxy-2,2-dimethylpropyl)-2-oxo-1,2,3,5-tetrahydro-4,1-benzoxazepin-3-yl]acetyl]amino-4-methylphenyl]propionic Acid] | 154 to 155 °C | 16 nM
11 | COc1cccc([C@H]2O[C@H](CC(=O)Nc3cccc(CCC(=O)O)c3)C(=O)N(CC(C)(C)C)c3ccc(Cl)cc32)c1OC [Example 60, 3-[3-[[(3R,5S)-7-chloro-5-(2,3-dimethoxyphenyl)-1-neopentyl-2-oxo-1,2,3,5-tetrahydro-4,1-benzoxazepin-3-yl]acetyl]aminophenyl]propionic Acid] | 172 to 173 °C | 50 nM
12 | COc1cccc([C@H]2O[C@H](CC(=O)NCc3ccc(CC(=O)O)cc3)C(=O)N(CC(C)(C)CO)c3ccc(Cl)cc32)c1OC [Example 61, 4-[[[(3R,5S)-7-chloro-5-(2,3-dimethoxyphenyl)-1-(3-hydroxy-2,2-dimethylpropyl)-2-oxo-1,2,3,5-tetrahydro-4,1-benzoxazepin-3-yl]acetyl]aminomethyl]phenylacetic acid] | 129 to 132 °C | 21 nM
13 | COc1cccc([C@H]2O[C@H](CC(=O)NCc3cccc(CCC(=O)O)c3)C(=O)N(CC(C)(C)CO)c3ccc(Cl)cc32)c1OC [Example 64, 3-[3-[[[(3R,5S)-7-chloro-5-(2,3-dimethoxyphenyl)-1-(3-hydroxy-2,2-dimethylpropyl)-2-oxo-1,2,3,5-tetrahydro-4,1-benzoxazepin-3-yl]acetyl]aminomethyl]phenyl]propionic Acid] | – | 37 nM
14 | CCCc1cc(NC(=O)C[C@H]2O[C@H](c3cccc(OC)c3OC)c3cc(Cl)ccc3N(CC(C)(C)CO)C2=O)cc2cc(C(=O)O)oc12 [Example 163, 5-[[[(3R,5S)-7-Chloro-5-(2,3-dimethoxyphenyl)-1-(3-hydroxy-2,2-dimethylpropyl)-2-oxo-1,2,3,5-tetrahydro-4,1-benzoxazepin-3-yl]acetyl]amino]-7-propyl-1-benzofuran-2-carboxylic acid] | 198.5 to 199.5 °C | –
15 | COc1cccc([C@H]2O[C@H](CC(=O)Nc3c(C)c(C)c4oc(C(=O)O)cc4c3C)C(=O)N(CC(C)(C)CO)c3ccc(Cl)cc32)c1OC [Example 164, 5-[[[(3R,5S)-7-Chloro-5-(2,3-dimethoxyphenyl)-1-(3-hydroxy-2,2-dimethylpropyl)-2-oxo-1,2,3,5-tetrahydro-4,1-benzoxazepin-3-yl]acetyl]amino]-4,6,7-trimethyl-1-benzofuran-2-carboxylic acid] | 246 to 248 °C | –
16 | COc1cccc([C@H]2O[C@H](CC(=O)Nc3cc(Cl)cc4cc(C(=O)O)oc34)C(=O)N(CC(C)(C)CO)c3ccc(Cl)cc32)c1OC [Example 165, 7-[[[(3R,5S)-7-Chloro-5-(2,3-dimethoxyphenyl)-1-(3-hydroxy-2,2-dimethylpropyl)-2-oxo-1,2,3,5-tetrahydro-5,1-benzoxazepin-3-yl]acetyl]amino]-5-chloro-1-benzofuran-2-carboxylic acid] | 179.2 to 180.2 °C | –
